Test results as given in ChEMBL document CHEMBL1124220 (J Med Chem, 1988).
Residues, ends and D or L forms follow the SMILES beside them.

System: Rattus norvegicus
Assay: In vivo angiotensin II like activity was measured in rat blood pressure assay expressed as percent activity relative to A II
Type: functional

## CC[C@H](C)[C@H](NC(=O)[C@H](Cc1ccc(O)cc1)NC(=O)[C@@H](NC(=O)[C@H](C)NC(=O)[C@@H](N)CC(=O)O)C(C)C)C(=O)N[C@@H](Cc1c[nH]cn1)C(=O)N1CCC[C@H]1C(=O)N[C@@H](Cc1ccccc1)C(=O)O (H-DAVYIHPF-OH)
  Activity: 7.7%
